Data reported in ChEMBL document CHEMBL2057146, “Improvement by sodium dl-α-tocopheryl-6-O-phosphate treatment of moisture-retaining ability in stratum corneum through increased ceramide levels” (Bioorg Med Chem, 2012).

What was measured:
[1] = Upregulation of SPTLCB1 mRNA expression in neonatal human foreskin keratinocytes at 10 uM after 4 days relative to vehicle treated control; format: functional, cell-based; settings: Keratinocyte
Homo sapiens [2] = assay: Increase in ceramide content in human skin at 2% administered topically after 4 weeks relative to vehicle treated control; format: functional
Homo sapiens [3] = assay: Increase in ceramide content in human skin at 4% administered topically after 4 weeks relative to vehicle treated control; format: functional
Keratinocyte [4] = assay: Increase in ceramide content in normal human keratinocytes at 1 to 30 uM after 6 days relative to vehicle treated control; format: functional
[5] = Upregulation of SPTLCB2 mRNA expression in neonatal human foreskin keratinocytes at 10 uM after 4 days relative to vehicle treated control; format: functional, cell-based; settings: Keratinocyte
Mus musculus [6] = assay: Increase in ceramide content in hairless mouse skin at 1% w/v administered topically after 30 hrs relative to vehicle treated control; format: functional
Keratinocyte [7] = assay: Increase in ceramide content in keratinocytes at […] after 24 hrs relative to vehicle treated control; format: functional
Mus musculus [8] = assay: Increase in ceramide content in hairless mouse skin at 1% v/v administered topically after 4 weeks relative to vehicle treated control; format: functional
Keratinocyte [9] = assay: Increase in ceramide content in keratinocytes at 1% after 6 days relative to vehicle treated control; format: functional
Homo sapiens [10] = assay: Increase in ceramide content in human skin at 0.3 to 1% administered topically after 11 days relative to vehicle treated control; format: functional

**Q.** Which fold change (FC) [1] does the source give for NC(=O)c1cccnc1 [NIACINAMIDE] here?
**A.** Its fold change (FC) is 1.8.

**Q.** What about the “fold change (FC)” value (Homo sapiens [2]) of the same compound?
**A.** The value was 1.4.

**Q.** What about the “fold change (FC)” value (Homo sapiens [3]) of the same compound?
**A.** Its value is 1.4.

**Q.** What about the “fold change (FC)” value (Keratinocyte [4]) of the same compound?
**A.** Its value is 4.1.

**Q.** What about the fold change (FC) [5] of the same compound?
**A.** The fold change (FC) was 1.8.

**Q.** Which “fold change (FC)” value (Mus musculus [6]) does the source give for O=C1CCCCCCCCCCCC(=O)OCCO1 here?
**A.** The value was 1.3.

**Q.** For CC(O)C(=O)O (configuration not stated) [LACTIC ACID], which “fold change (FC)” value (Homo sapiens [2]) is on record?
**A.** Its value is 1.4.

**Q.** And the “fold change (FC)” value (Homo sapiens [3])?
**A.** The value was 1.4.

**Q.** What about the “fold change (FC)” value (Keratinocyte [7]) of the same compound?
**A.** Its value is 4.3.

**Q.** With CCO[C@H]1O[C@H](CO)[C@@H](O)[C@H](O)[C@H]1O as the compound, how does the “fold change (FC)” value (Mus musculus [8]) read?
**A.** Its value is 1.1.

**Q.** What does the source list for C[C@H]1[C@H](C)CC[C@]2(C(=O)O)CC[C@]3(C)C(=CC[C@@H]4[C@@]5(C)CC[C@H](O)C(C)(C)[C@@H]5CC[C@]43C)[C@H]12 [URSOLIC ACID]?
**A.** fold change (FC) (Keratinocyte [9]): 2.2; fold change (FC) (Homo sapiens [10]): 1.3
